# Source: US5773438A, “Synthetic matrix metalloprotease inhibitors and use thereof” (Glycomed Incorporated, priority 1994, dated 1998)
# Assays:
# [1] = system: PdiBu-Induced Epidermal Hyperplasia; assay: PdiBu-induced epidermal hyperplasia mouse model (psoriasis); assay type: in vivo, hairless mice
# Method: The phorbol ester, PdiBu (20 nmol in 20 μl if acetone) was applied to both ears of hairless mice (h/h) (approximately 1 cm^2 each). The test compounds (in total volume of 20 μl) were then applied to the right ear immediately (15 to 30 min) following PdiBu. The left ear of each animal received an equivalent amount (20 μl) of vehicle. Test compounds (and vehicle) were reapplied at 6 and 18 hours following PdiBu. Treatment times were staggered to allow exact time intervals to be obtained. At 30 hours after PdiBu, animals were anesthetized, and ear thickness values were obtained using a microcaliper. The weights of punch biopsies (6mm) were then obtained. Histology was performed on selected samples taken at 30 hours.
# Left ear in each animal served as vehicle-treated controls (PdiBu+ETOH). Thus, the controls for this series include: 1) Untreated controls; 2) PdiBu plus vehicle alone (included for each mouse tested); 3) PdiBu plus AHA; 4) PdiBu plus Lidex® as a positive control.
# MMPs = settings: cited from earlier work
smiles,measurement,setting,value
"CC(=O)NO [AHA, acetohydroxamic acid, reference compound]",ear thickness (AHA control),"[1]; PdiBu + AHA, 0.53 μmol/ear at 0.25, 6.0 and 24 hours",36.8 ± 1.3 inch × 10^-3
same,biopsy weight (AHA control),"[1]; PdiBu + AHA, 0.53 μmol/ear at 0.25, 6.0 and 24 hours, in mg",24.1 ± 1.2
same,ear thickness (positive control section),"[1]; Positive Control: Lidex (fluocinonide) section, single experiment",15.8 ± 0.4
same,biopsy weight (positive control section),"[1]; Positive Control: Lidex (fluocinonide) section, single experiment, in mg",9.7 ± 0.3
same,effect on PdiBu-induced ear thickness,[1]; topical,did not alter
same,effect on PdiBu-induced increase in punch biopsy weight,[1]; topical,did not alter
same,inhibitory effects on MMPs,MMPs,devoid of inhibitory effects on MMPs
